Values quoted from earlier work in patent publication EP3297603B1, “CINEOLE-CONTAINING AQUEOUS COMPOSITION FOR NASAL APPLICATION” (Maria Clementine Martin Klosterfrau Vertriebsgesellschaft …, priority 2015, dated 2017).

Conditions: general property, reference to RÖMPP Chemielexikon

Structure (SMILES): CC12CCC(CC1)C(C)(C)O2 [1,8-Cineol, 1,3,3-Trimethyl-2-oxabicyclo[2.2.2]octan]
- Löslichkeit in Wasser: in Wasser unlöslich
